Data published in patent publication US10077261B2, “Imidazolin-5-one derivative useful as FASN inhibitors for the treatment of cancer” (Janssen Pharmaceutica NV, priority 2012, dated 2018).

Tests used:
[1] = target: T1, hFASN enzyme (full length) (Homo sapiens, UniProt P49327); experiment: Fatty Acid Synthase (FASN) inhibition scintillation proximity assay; format: biochemical; details: for inhibition at 10 µM: read-out: Human FASN % inhibition @ 10 μM, 10 μM test compound; for IC50: read-out: Human FASN pIC50 (converted)
T1 construct: 10 μL hFASN enzyme (full length, 300 ng, purified in house); made in house
T1 sequence (P49327 whole entry): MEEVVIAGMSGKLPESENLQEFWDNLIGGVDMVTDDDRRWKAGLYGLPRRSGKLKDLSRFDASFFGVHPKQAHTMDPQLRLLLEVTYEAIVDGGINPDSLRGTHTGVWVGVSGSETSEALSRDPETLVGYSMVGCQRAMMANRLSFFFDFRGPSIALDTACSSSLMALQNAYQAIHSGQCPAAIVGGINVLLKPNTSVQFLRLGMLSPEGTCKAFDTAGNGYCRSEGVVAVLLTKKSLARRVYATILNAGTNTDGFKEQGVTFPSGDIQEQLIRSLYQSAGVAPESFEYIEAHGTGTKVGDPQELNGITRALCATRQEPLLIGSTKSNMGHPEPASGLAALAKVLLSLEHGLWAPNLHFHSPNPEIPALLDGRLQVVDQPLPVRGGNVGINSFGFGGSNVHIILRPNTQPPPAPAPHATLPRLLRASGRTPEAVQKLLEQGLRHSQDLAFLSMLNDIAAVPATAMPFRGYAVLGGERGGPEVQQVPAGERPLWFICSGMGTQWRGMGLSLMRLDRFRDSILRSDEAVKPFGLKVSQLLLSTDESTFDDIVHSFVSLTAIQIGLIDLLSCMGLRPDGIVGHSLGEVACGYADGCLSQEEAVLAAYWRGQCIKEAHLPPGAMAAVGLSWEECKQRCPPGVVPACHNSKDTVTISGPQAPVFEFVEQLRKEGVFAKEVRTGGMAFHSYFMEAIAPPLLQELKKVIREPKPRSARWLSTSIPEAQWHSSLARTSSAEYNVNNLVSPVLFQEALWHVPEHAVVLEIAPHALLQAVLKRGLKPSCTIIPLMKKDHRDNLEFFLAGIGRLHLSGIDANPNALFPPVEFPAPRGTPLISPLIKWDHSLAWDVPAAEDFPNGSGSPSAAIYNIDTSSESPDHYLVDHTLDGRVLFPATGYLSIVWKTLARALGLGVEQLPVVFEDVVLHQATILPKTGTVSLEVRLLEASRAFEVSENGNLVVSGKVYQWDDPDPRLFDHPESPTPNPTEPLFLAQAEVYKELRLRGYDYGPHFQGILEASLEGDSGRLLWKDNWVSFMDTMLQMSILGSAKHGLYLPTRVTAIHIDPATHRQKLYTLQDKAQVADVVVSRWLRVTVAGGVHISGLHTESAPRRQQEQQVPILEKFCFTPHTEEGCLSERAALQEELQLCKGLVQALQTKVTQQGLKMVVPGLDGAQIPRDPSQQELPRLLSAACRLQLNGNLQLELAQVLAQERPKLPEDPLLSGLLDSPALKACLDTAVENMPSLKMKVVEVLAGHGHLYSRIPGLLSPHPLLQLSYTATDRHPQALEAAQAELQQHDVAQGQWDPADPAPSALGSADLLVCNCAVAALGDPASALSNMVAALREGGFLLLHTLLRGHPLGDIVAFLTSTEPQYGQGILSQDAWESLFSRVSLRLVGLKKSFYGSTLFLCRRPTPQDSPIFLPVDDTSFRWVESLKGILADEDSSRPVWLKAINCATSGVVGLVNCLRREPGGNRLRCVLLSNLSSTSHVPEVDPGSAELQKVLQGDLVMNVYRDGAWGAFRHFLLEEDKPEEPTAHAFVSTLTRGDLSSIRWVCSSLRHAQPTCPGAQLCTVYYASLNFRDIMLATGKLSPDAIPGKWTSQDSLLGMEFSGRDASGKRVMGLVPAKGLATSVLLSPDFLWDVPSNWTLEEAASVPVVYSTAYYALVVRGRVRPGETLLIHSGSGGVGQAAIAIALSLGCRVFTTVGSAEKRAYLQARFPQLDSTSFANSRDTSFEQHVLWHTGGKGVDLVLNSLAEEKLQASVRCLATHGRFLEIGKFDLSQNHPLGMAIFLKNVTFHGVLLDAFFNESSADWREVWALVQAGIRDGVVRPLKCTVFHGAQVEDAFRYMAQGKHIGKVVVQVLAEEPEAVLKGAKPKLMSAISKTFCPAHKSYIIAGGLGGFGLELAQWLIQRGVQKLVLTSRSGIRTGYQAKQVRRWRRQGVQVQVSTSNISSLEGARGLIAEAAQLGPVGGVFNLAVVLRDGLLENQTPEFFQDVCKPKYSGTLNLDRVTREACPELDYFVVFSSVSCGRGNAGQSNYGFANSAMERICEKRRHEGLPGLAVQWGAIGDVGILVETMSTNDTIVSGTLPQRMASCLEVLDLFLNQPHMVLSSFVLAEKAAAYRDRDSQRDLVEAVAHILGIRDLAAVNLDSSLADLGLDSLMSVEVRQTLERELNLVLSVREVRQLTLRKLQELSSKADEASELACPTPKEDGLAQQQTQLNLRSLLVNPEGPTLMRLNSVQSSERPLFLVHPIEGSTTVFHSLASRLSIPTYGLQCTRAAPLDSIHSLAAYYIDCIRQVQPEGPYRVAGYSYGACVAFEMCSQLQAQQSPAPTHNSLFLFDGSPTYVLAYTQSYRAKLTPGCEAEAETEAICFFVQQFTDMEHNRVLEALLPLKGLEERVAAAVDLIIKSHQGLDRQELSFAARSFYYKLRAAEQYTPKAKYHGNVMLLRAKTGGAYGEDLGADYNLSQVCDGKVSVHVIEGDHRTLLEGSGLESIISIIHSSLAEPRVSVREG
Summary of the method: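 Scintillation proximity format: in-house full-length enzyme, 300 ng per well, pH 7.5 phosphate/DTT buffer, ³H-acetyl-CoA and malonyl-CoA. Emission counted on LEADseeker at 610 nm at least 24 h after stopping.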

A2780 ovarian cells [2] = experiment: A2780 ovarian cell proliferation assay in lipid reduced medium, with palmitate (MTT); format: cell-based; details: Homo sapiens, A2780, 96 h; read-out: pIC50 A2780 Ovarian Cell, With Palmitate (converted)
Summary of the method: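 In this palmitate-supplemented format, compound dilutions (30 μM down to 0.01 μM) are added to cells in lipid-reduced serum with 25 μM palmitate, 0.2% fatty-acid-free BSA and 0.25% ethanol. After four days (96 h) MTT absorbance at 544 nm is recorded and fitted by minimum sum of squares.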

A2780 ovarian cells [3] = experiment: A2780 ovarian cell proliferation assay in lipid reduced medium, without palmitate (MTT); format: cell-based; details: Homo sapiens, A2780, 96 h; read-out: pIC50 A2780 Ovarian Cell, Without Palmitate (converted)
[4] = system: LNCaP-Vancouver prostate cells; experiment: In vitro LNCaP Vancouver prostate cell proliferation assay in lipid reduced medium; format: cell-based; details: read-out: pIC50 LNCaP_Vancouver prostate cell (converted)
Procedure: LNCaP-Vancouver prostate cells were obtained from the Vancouver Prostate Cancer Centre. Cells were maintained in RPMI-1640, 10% Fetal Calf Serum (FCS, Hyclone), 2 mM glutamine and 50 μg/ml Gentamicin.
For the proliferation experiment 1500 LNCaP-Vancouver cells per well were seeded in a 384-well black with clear bottom plate (costar 3712BC) in 40 μl RPMI-1640, 10% Lipid reduced serum (LRS, Hyclone), 50 μg/ml Gentamicin and 2 mM Glutamine and incubated at 37° C., 5% CO2. The next day 10 μl of test compound/DMSO diluted in medium was added (3E-5M, 1E-5M, 3E-6M, 1E-6M, 3E-7M, 1E-7M, 3E-8M, 1E-8M final concentration). Compounds were tested in duplicate. After 96 h incubation at 37° C., 5% CO2 25 μl ATP-glow mix was added. The plate was incubated for 30 min at 37° C. and luminescence was measured with the Envision.
Analysis: Determination of pIC50 Values
pIC50 values were calculated as follows.
where mLC and mHC are the means of the low control wells and high control wells on the plate, after manual exclusion of outliers. The relation between the % Controlmin values and concentration was fitted to a 4-parameter logistic curve using a non-linear least squares regression method to determine the pIC50 value. Outlying data points were excluded manually to get a correct fit. The pIC50 corresponds to −log 10(IC50), if the IC50 is expressed in molar units (http://www.ncbi.nlm.nih.gov/books/NBK91994). The IC50 parameter was always determined by non-linear regression, but one or more of the other parameters may have been held fixed on a relevant input value, such as 0 for the bottom values.
For dose response curves with FASN inhibitors in LNCaP-Vancouver or PC-3M-Luc-C6 cells the curves bottom out around 30 to 40% of the control value. A standard fit PL2, forcing the lower bound to this level was used.
Representative compounds of the present invention were tested according to the procedure as described in Biological Example 4a and 4b above, with results as listed in Table 9, below.

[5] = target: Fatty Acid Synthase Keto-reductase Domain (FASN KR) (Homo sapiens, UniProt P49327); experiment: Fatty Acid Synthase keto-reductase domain (FASN KR) inhibition, NADPH oxidation at 340 nm
Chain of Fatty Acid Synthase Keto-reductase Domain (FASN KR) (P49327 whole entry, the tested form may be a part): as the sequence (P49327 whole entry) above
Procedure: After 20 minutes incubation at room temperature the plate was measured again (T2).
The decrease in absorbance was calculated as (Absorbance before incubation T1)−(Absorbance following incubation T2).
A plot of Controlmin versus test compound concentration was fitted to a 4-parameter logistic curve using a non-linear least squares regression method.

SMILES | inhibition at 10 µM [1] | IC50 [1] | IC50 (A2780 ovarian cells [2]) | IC50 (A2780 ovarian cells [3]) | IC50 [4] | IC50 [5]
Cn1ncc2cc(-c3ccc(C4=NC5(CC5)C(=O)N4CC4CN(C(=O)C5CC5)C4)c(F)c3)ccc21 [compound 347, 6-((1-(cyclopropanecarbonyl)azetidin-3-yl)methyl)-5-(2-fluoro-4-(1-methyl-1H-indazol-5-yl)phenyl)-4,6-diazaspiro[2.4]hept-4-en-7-one] | 98% | 49 nM | > 10 µM | ~50.1 nM | 708 nM | 120 nM
Cc1cc(C2=NC3(CC3)C(=O)N2C[C@@H]2CCN(C(=O)C3CC3)C2)ccc1-c1ccc2sccc2c1 [compound 230, (R)-5-(4-(benzo[b]thiophen-5-yl)-3-methylphenyl)-6-((1-(cyclopropanecarbonyl)pyrrolidin-3-yl)methyl)-4,6-diazaspiro[2.4]hept-4-en-7-one] | 107% | 40.7 nM | > 10 µM | 550 nM | 1230 nM | 105 nM
Cc1ccc2cc(-c3ccc(C4=NC5(CC5)C(=O)N4CC4CN(C(=O)C5CC5)C4)cc3)ccc2n1 [compound 510, 6-{[1-(Cyclopropylcarbonyl)azetidin-3-yl]methyl}-5-[4-(2-methylquinolin-6-yl)phenyl]-4,6-diazaspiro[2.4]hept-4-en-7-one] | 80% | 955 nM | – | – | 4790 nM | 5370 nM
O=C(C1CC1)N1CC(CN2C(=O)C3(CC3)N=C2c2ccc(-c3ccc4cncnc4c3)cc2)C1 [compound 543, 6-{[1-(Cyclopropylcarbonyl)azetidin-3-yl]methyl}-5-(4-quinazolin-7-ylphenyl)-4,6-diazaspiro[2.4]hept-4-en-7-one] | 97% | 145 nM | > 10 µM | 141 nM | 2000 nM | 479 nM
Cc1cc(-c2cccc(SC3CC3)c2)ccc1C1=NC2(CC2)C(=O)N1C[C@@H]1CCN(C(=O)C2CC2)C1 [compound 642, 6-{[(3R)-1-(Cyclopropylcarbonyl)pyrrolidin-3-yl]methyl}-5-[3′-(cyclopropylsulfanyl)-3-methylbiphenyl-4-yl]-4,6-diazaspiro[2.4]hept-4-en-7-one] | 99% | 219 nM | > 10 µM | ~3800 nM | 6170 nM | 776 nM
O=C(C1CC1)N1CC[C@@H](CN2C(=O)C3(CC3)N=C2c2ccc(-c3ccc4cnc(F)cc4c3)cc2)C1 [compound 220, (R)-6-((1-(cyclopropanecarbonyl)pyrrolidin-3-yl)methyl)-5-(4-(3-fluoroisoquinolin-6-yl)phenyl)-4,6-diazaspiro[2.4]hept-4-en-7-one] | 99% | 91.2 nM | > 10 µM | 339 nM | 1070 nM | 263 nM
Cc1cc(-c2ccc3cn(C)nc3c2)ccc1C1=NC2(CC2)C(=O)N1CC1CN(C(=O)C2(C)CC2)C1 [compound 336, 5-(2-methyl-4-(2-methyl-2H-indazol-6-yl)phenyl)-6-((1-(1-methylcyclopropanecarbonyl)azetidin-3-yl)methyl)-4,6-diazaspiro[2.4]hept-4-en-7-one] | 103% | 50.1 nM | > 10 µM | 20 nM | 105 nM | 69.2 nM
CC(C)N1CCC2(CC1)N=C(c1ccc(-c3ccc4[nH]ccc4c3)cc1)N(C[C@@H]1CCN(C(=O)C3CC3)C1)C2=O [compound 744, 3-{[(3R)-1-(Cyclopropylcarbonyl)pyrrolidin-3-yl]methyl}-2-[4-(1H-indol-5-yl)phenyl]-8-(1-methylethyl)-1,3,8-triazaspiro[4.5]dec-1-en-4-one] | 98% | 115 nM | > 10 µM | ~214 nM | 851 nM | 251 nM
CS(=O)(=O)N1CCC2(CC1)N=C(c1ccc(-c3ccc4[nH]ccc4c3)cc1)N(C[C@@H]1CCN(C(=O)C3CC3)C1)C2=O [compound 745, 3-{[(3R)-1-(Cyclopropylcarbonyl)pyrrolidin-3-yl]methyl}-2-[4-(1H-indol-5-yl)phenyl]-8-(methylsulfonyl)-1,3,8-triazaspiro[4.5]dec-1-en-4-one] | 104% | 70.8 nM | > 10 µM | 95.5 nM | 851 nM | 158 nM
Cn1nc(C2CC2)c2cc(-c3ccc(C4=NC5(CC5)C(=O)N4C[C@@H]4CCN(C(=O)C5CC5)C4)cc3)ccc21 [compound 465, 6-{[(3R)-1-(Cyclopropylcarbonyl)pyrrolidin-3-yl]methyl}-5-[4-(3-cyclopropyl-1-methyl-1H-indazol-5-yl)phenyl]-4,6-diazaspiro[2.4]hept-4-en-7-one] | 99% | 151 nM | > 10 µM | 182 nM | 525 nM | 200 nM
Cc1cc(-c2ccc(C#N)cc2F)ccc1C1=NC2(CC2)C(=O)N1CC1CN(C(=O)C2(C)CC2)C1 [compound 580] | 108% | 123 nM | > 10 µM | 56.2 nM | 759 nM | 603 nM
O=C(C1CC1)N1CC[C@@H](CN2C(=O)C3(CCN(C(=O)C(F)(F)F)CC3)N=C2c2ccc(-c3ccc4[nH]ccc4c3)cc2)C1 [compound 751, 3-{[(3R)-1-(Cyclopropylcarbonyl)pyrrolidin-3-yl]methyl}-2-[4-(1H-indol-5-yl)phenyl]-8-(trifluoroacetyl)-1,3,8-triazaspiro[4.5]dec-1-en-4-one] | 98% | 135 nM | > 10 µM | 89.1 nM | 724 nM | 166 nM
COC(=O)N1CC2(C1)N=C(c1ccc(-c3ccc(-c4cnn(C)c4)cc3)cc1)N(C[C@@H]1CCN(C(=O)C3CC3)C1)C2=O [compound 725, Methyl 7-{[(3R)-1-(cyclopropylcarbonyl)pyrrolidin-3-yl]methyl}-6-[4′-(1-methyl-1H-pyrazol-4-yl)biphenyl-4-yl]-8-oxo-2,5,7-triazaspiro[3.4]oct-5-ene-2-carboxylate] | 93% | 245 nM | – | – | 1660 nM | 646 nM
O=C(C1CC1)N1CC[C@@H](CN2C(=O)C3(CCOC3)N=C2c2ccc(-c3ccc4cccnc4c3)cc2)C1 (stereo partly drawn) [compound 680, 3-{[(3R)-1-(Cyclopropylcarbonyl)pyrrolidin-3-yl]methyl}-2-(4-quinolin-7-ylphenyl)-7-oxa-1,3-diazaspiro[4.4]non-1-en-4-one] | 98% | 79.4 nM | – | – | 339 nM | 224 nM
O=C(C1CC1)N1CC[C@@H](CN2C(=O)C3(CC3)N=C2c2ccc(-c3ccc4cc(F)ccc4c3)cc2)C1 [compound 311, (R)-6-((1-(cyclopropanecarbonyl)pyrrolidin-3-yl)methyl)-5-(4-(6-fluoronaphthalen-2-yl)phenyl)-4,6-diazaspiro[2.4]hept-4-en-7-one] | – | – | > 10 µM | ~229 nM | 302 nM | –
O=C(C1CC1)N1CC[C@@H](CN2C(=O)C3(CCOC3)N=C2c2ccc(-c3ccc4occc4c3)cc2)C1 (stereo partly drawn) [compound 686, 2-[4-(1-Benzofuran-5-yl)phenyl]-3-{[(3R)-1-(cyclopropylcarbonyl)pyrrolidin-3-yl]methyl}-7-oxa-1,3-diazaspiro[4.4]non-1-en-4-one] | 98% | 182 nM | – | – | 3800 nM | 676 nM
Cn1ncc2cc(-c3ccc(C4=NC5(CCOCC5)C(=O)N4C[C@@H]4CCN(C(=O)C5CC5)C4)cc3)ccc21 [compound 672, 3-{[(3R)-1-(Cyclopropylcarbonyl)pyrrolidin-3-yl]methyl}-2-[4-(1-methyl-1H-indazol-5-yl)phenyl]-8-oxa-1,3-diazaspiro[4.5]dec-1-en-4-one] | – | – | > 10 µM | ~407 nM | 2630 nM | –
